Experiment: Storage stability: content of active ingredient in water dispersible granules
Format: physicochemical
Experimental: A test on the storage stability was performed with the following results:
Comparison of stability of fluoroxypyr and metsulfuon-methyl when a WG granulation is made according to U.S. Pat. No. 5,688,743 (Dow) and the encapsulation step has been omitted and replaced by a joint milling of the corresponding amount of fluoroxypyr and metsulfuron-methyl: […]

[1] = FXY + MET 26 WG (Fluroxypyr 250 g/kg + Metsulfuron 10 g/kg WG, microencapsulated fluroxypyr), test item FXY-MSF_0604, column without storage
[2] = FXY + MET 26 WG (microencapsulated fluroxypyr), GLASS, 0 ± 2° C., after storage
[3] = FXY + MET 26 WG (microencapsulated fluroxypyr), GLASS, 54 ± 2° C., after storage
[4] = FXY + MET 26 WG (microencapsulated fluroxypyr), PLASTIC, 0 ± 2° C., after storage
[5] = FXY + MET 26 WG (microencapsulated fluroxypyr), PLASTIC, 54 ± 2° C., after storage
[6] = Fluroxypyr 250 g/kg + Metsulfuron 10 g/kg WG WITHOUT microencapsulation of fluroxypyr (joint milling, per US 5,688,743), test item FXY-MSF_060/, column without storage
[7] = WG WITHOUT microencapsulation of fluroxypyr, GLASS, 0 ± 2° C., after storage
[8] = WG WITHOUT microencapsulation of fluroxypyr, GLASS, 54 ± 2° C., after storage
[9] = WG WITHOUT microencapsulation of fluroxypyr, PLASTIC, 0 ± 2° C., after storage
[10] = WG WITHOUT microencapsulation of fluroxypyr, PLASTIC, 54 ± 2° C., after storage

Structure (SMILES)	Content of active ingredient [1] [wt-%]	Content of active ingredient [2] [wt-%]	Content of active ingredient [3] [wt-%]	Content of active ingredient [4] [wt-%]	Content of active ingredient [5] [wt-%]	Content of active ingredient [6] [wt-%]	Content of active ingredient [7] [wt-%]	Content of active ingredient [8] [wt-%]	Content of active ingredient [9] [wt-%]	Content of active ingredient [10] [wt-%]
Nc1c(Cl)c(F)nc(OCC(=O)O)c1Cl [Fluroxypyr]	39.37	38.65	38.57	38.51	38.35	39.41	34.44	28.02	36.34	16.05
COc1nc(C)nc(NC(=O)NS(=O)(=O)c2ccccc2C(=O)O)n1 [Metsulfuron]	1.18	1.18	1.18	1.19	1.18	1.16	0.35	0.21	0.39	0.24

Reference: patent US8263530B2, “Agrochemical formulations containing microcapsules” (priority 2006, dated 2012)
